Four compounds from ChEMBL document CHEMBL1158992, “Application of two-dimensional nmr spectroscopy in the structural determination of marine natural products. Isolation and total structural assignment of 4-deoxyasbestinin diterpenes from the Caribbean gorgonian Briareum asbestinum” (J Nat Prod, 1991) can be followed below.

Values after ≈ are worked out from the molar mass of the structure shown. Active and inactive are the calls of the source. The calls are words filed in the database; no cut-off is given here.

Data set [1] can be described thus: Cytotoxicity against CHOK1 cells. It counts as cell-based, Cricetulus griseus. The following applies: chinese hamster, CHO-K1 cells; read-out: ED50 (the source's name).
The subject of data set [2] is Klebsiella pneumoniae. The experiment in a line: Antimicrobial activity against Klebsiella pneumoniae. It counts as functional, organism-based.
Data set [3] concerns Human immunodeficiency virus. The experiment in a line: Antiviral activity against HIV. It counts as functional, organism-based.

With `CC(=O)O[C@H]1[C@@H]2[C@@H]3[C@@H](C[C@H]1C)[C@@H](C)CO[C@@]1(C)CC/C=C(/C)C[C@@H]2O[C@@H]31`, in data set [1], the CC50 came out at 4.82 µg/mL (≈ 13.3 µM). Besides, the outcome in data set [2] was Active.
For `CCCC(=O)O[C@H]1[C@@H]2[C@@H]3[C@@H](C[C@H]1C)[C@@H](C)CO[C@@]1(C)CC/C=C(\C)C[C@@H]2O[C@@H]31` [4-DEOXYASBESTININ A] the same measures were 3.35 µg/mL (≈ 8.58 µM) and “Active”.
On to `CC(=O)O[C@H]1[C@@H]2[C@@H]3[C@@H](C[C@H]1C)[C@@H](C)CO[C@@]1(C)CC/C=C(\C)C[C@@H]2O[C@@H]31` [11-ACETOXY-4-DEOXYASBESTININ B], for which the outcome in data set [3] was inactive. The CC50 in data set [1] worked out at 2.5 µg/mL (≈ 6.9 µM). The outcome in data set [2] was Active.
For the compound `CCCC(=O)O[C@H]1[C@@H]2[C@@H]3[C@@H](C[C@H]1C)[C@@H](C)CO[C@@]1(C)CC/C=C(/C)C[C@@H]2O[C@@H]31`, the CC50 in data set [1] turned out to be 3.55 µg/mL (≈ 9.09 µM). The result in data set [2] was Active.
